# Tests used:
# myrosinase [1] = test: Conversion of glucoraphanin to sulforaphane by myrosinase, HPLC (Example 4); assay type: biochemical; details: Part 2, 250 mg broccoli seed extract
# Procedure: A two-part experiment was conducted to further elucidate the role of ascorbic acid in modulating myrosinase activity. […] A control sample contained no ascorbic acid, and the enzymatic conversion proceeded unassisted by a co-factor. PART 1. […] PART 2. While keeping the amount of broccoli seed extract fixed at 250 mg, the concentration of ascorbic acid was varied from 0.4 mmol/Liter to 3.8 mmol/Liter.
# myrosinase [2] = test: Conversion of glucoraphanin to sulforaphane in Simulated Intestinal Fluid (Example 5); assay type: biochemical, broccoli; details: 0.25 to 1.00 mmol/Liter ascorbic acid, 38° C., 2 hours
# Procedure: Simulated Intestinal Fluid (SIF) powder, a commercially supplied concentrate closely approximating the human intestinal content in terms of composition, pH and ionic strength, was used. The experiment utilized a USP Dissolution Apparatus 2 (paddles), where into six dissolution vessels 500 mL of Simulated Intestinal Fluid was dispensed, along with 150 mg of freeze-dried broccoli sprout powder as a source of myrosinase. […] Aliquots were withdrawn every 15 minutes and assayed for sulforaphane.
structure (smiles),measurement,setting,value
"O=C1O[C@H]([C@@H](O)CO)C(O)=C1O [Ascorbic Acid, Ascorbic acid]","Ascorbic acid concentration up to which myrosinase-promoted conversion increases apparently linearly, followed by leveling off",myrosinase [1],about 2 mmol/L
same,Sulforaphane yield versus ascorbic acid concentration,myrosinase [2],direct correlation between larger yield of sulforaphane and higher concentrations of ascorbic acid

# From US12064471B2, “Compositions comprising sulforaphane or a sulforaphane precursor and a mushroom extract or powder” (NUTRAMAX LABORATORIES, INC., priority 2012, dated 2024)
